This note sets out measurements from ChEMBL document CHEMBL1201862, “PubChem BioAssay data set” (2004).

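Interpolation was linear, between the two tested concentrations surrounding the appropriate level; five concentrations were tested over 48 hours in 96-well plates. GI50: concentration for 50% inhibition of growth.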 Active and inactive are the calls of the source. Rule as the data show it: active = GI50 up to about 1.1 µM and inactive = higher.

Among the test systems are HCC 2998; MDA-MB-231; LOX IMVI; A498; NCI-H522; UACC-62; HT-29; A549; PC-3; KM12; EKVX; ACHN; SK-MEL-2; MOLT-4; TK-10; DU-145; SN12C; OVCAR-4; MDA-MB-435; Malme-3M.
Holding throughout (assay): growth of human tumour cells (NCI), 48 h

As to `Cc1ccnc2nc(-c3cccc(Cl)c3)cc(O)c12`, the GI50 with HCC 2998 was 0.224 µM (active); with MDA-MB-231, 0.108 µM (active); in the assay on LOX IMVI, 0.155 µM (active); in the assay on A498, 0.234 µM (active); with NCI-H522, 0.0459 µM (active); with UACC-62, 0.0474 µM (active). For the same compound, the GI50 in the assay with HT-29 was 0.0401 µM (active); with A549 it was 0.0748 µM (active); in the assay on PC-3, 0.0206 µM (active); in the assay with KM12, 0.0682 µM (active); in the assay with EKVX it was > 100 µM (inactive); in the assay on ACHN it was 1.34 µM (inactive). The GI50 with SK-MEL-2 is 0.0675 µM (active); in the assay on MOLT-4, 0.0658 µM (active); with TK-10, > 100 µM (inactive); with DU-145, 0.495 µM (active); with SN12C, 0.139 µM (active); in the assay with OVCAR-4, > 91.4 µM (inactive). Moreover, the GI50 with MDA-MB-435 was < 0.01 µM (active).

For `Cn1c(=O)cc(NCCc2ccccc2)[nH]c1=O`, the GI50 in the assay with HCC 2998 was 27.8 µM (inactive); with MDA-MB-231 it was 12.3 µM (inactive); with LOX IMVI, 46.6 µM (inactive); with A498 it was 46 µM (inactive); in the assay with UACC-62 it was 19.9 µM (inactive); in the assay on HT-29, 25.5 µM (inactive). In addition, the GI50 in the assay on A549 is 38.8 µM (inactive); in the assay with PC-3, 13 µM (inactive); with Malme-3M, 34.8 µM (inactive); in the assay with KM12, 15.3 µM (inactive); in the assay on EKVX, 54.7 µM (inactive); with ACHN it was 39.3 µM (inactive). Further, the GI50 in the assay with SK-MEL-2 is 51.1 µM (inactive); in the assay on MOLT-4 it was 35.2 µM (inactive); in the assay with TK-10, > 100 µM (inactive); in the assay with DU-145, 52 µM (inactive); in the assay on SN12C, 23.3 µM (inactive); with OVCAR-4, > 100 µM (inactive). Also, in the assay with MDA-MB-435, the GI50 was 5.46 µM (inactive).

`CCCC1c2c(ccc3ccccc23)Oc2ccc3ccccc3c21`: the GI50 in the assay on MDA-MB-231 is 31.7 µM (inactive); in the assay with LOX IMVI it was 32.5 µM (inactive); in the assay on A498, 23.7 µM (inactive); with NCI-H522, 25.5 µM (inactive); in the assay on UACC-62, 84.9 µM (inactive); in the assay with HT-29 it was 28.1 µM (inactive). Also, the GI50 in the assay with A549 was 47.5 µM (inactive); in the assay with PC-3, 64.4 µM (inactive); with Malme-3M, 57.3 µM (inactive); in the assay with KM12, 39.3 µM (inactive); with EKVX, 33.5 µM (inactive); with ACHN, 31 µM (inactive). The GI50 in the assay with SK-MEL-2 is 20.3 µM (inactive); in the assay with MOLT-4, 37.6 µM (inactive); in the assay on TK-10 it was 35.7 µM (inactive); in the assay with DU-145, 84.3 µM (inactive); in the assay on SN12C it was 65.3 µM (inactive); with OVCAR-4, > 100 µM (inactive). Further, the GI50 in the assay with MDA-MB-435 was 41.4 µM (inactive).

On to `Cc1nc(N)nc(S)c1CCCNc1ccccc1`, for which the GI50 was > 100 µM (inactive) in the assay on MDA-MB-231; 54.5 µM (inactive) with LOX IMVI; 26.1 µM (inactive) in the assay with A498; 34.4 µM (inactive) in the assay with NCI-H522; 78.2 µM (inactive) in the assay on UACC-62; 68.7 µM (inactive) in the assay with HT-29. For the same compound, the GI50 is 52.2 µM (inactive) with A549; 61.2 µM (inactive) in the assay on PC-3; 35.6 µM (inactive) in the assay with Malme-3M; 76.7 µM (inactive) in the assay on KM12; 60 µM (inactive) in the assay with EKVX; 90.2 µM (inactive) in the assay with ACHN. In addition, the GI50 with SK-MEL-2 is 60.1 µM (inactive); in the assay with MOLT-4, 3.21 µM (inactive); in the assay with TK-10, 63.8 µM (inactive); with DU-145, 76.2 µM (inactive); in the assay on SN12C, 69.7 µM (inactive); with OVCAR-4, > 100 µM (inactive). Besides, the GI50 with MDA-MB-435 was 74 µM (inactive).

`O=[N+]([O-])C1CC/C(=N/O)c2nonc21` (stereo not drawn): the GI50 in the assay with HCC 2998, with MDA-MB-231, with A498, in the assay with UACC-62, in the assay with HT-29 and in the assay with A549 was > 10 µM (inactive) throughout. Also, the GI50 in the assay with PC-3, with Malme-3M, in the assay on KM12, with EKVX, with ACHN and with MOLT-4 was > 10 µM (inactive) each time. The GI50 with TK-10, in the assay on DU-145, in the assay on SN12C, in the assay with OVCAR-4 and with MDA-MB-435 was > 10 µM (inactive) each time.

With `COc1ccc(-c2nnc(-c3ccncc3)o2)cc1`, the GI50 with MDA-MB-231, in the assay on LOX IMVI, with A498, in the assay with NCI-H522, in the assay with UACC-62 and in the assay on HT-29 was > 100 µM (inactive) each time. Besides, the GI50 with A549, in the assay on PC-3, in the assay on Malme-3M, in the assay on EKVX, with ACHN and in the assay with SK-MEL-2 was > 100 µM (inactive) each time. Further, the GI50 in the assay on MOLT-4, with TK-10, in the assay on DU-145, in the assay with SN12C, in the assay on OVCAR-4 and in the assay on MDA-MB-435 was > 100 µM (inactive) throughout.

With `COc1cc2c(c(OC3OC(CO)C(O)C(O)C3O)c1)C(=O)CC(c1ccc(O)cc1)O2` (stereo not drawn), the GI50 in the assay with HCC 2998, in the assay on MDA-MB-231, in the assay on LOX IMVI, in the assay on A498, in the assay on NCI-H522 and with UACC-62 was > 100 µM (inactive) in each case. Moreover, the GI50 in the assay on HT-29, in the assay with A549, in the assay on PC-3, in the assay with KM12, in the assay with EKVX and in the assay with ACHN was > 100 µM (inactive) each time. Further, the GI50 with SK-MEL-2, in the assay with MOLT-4, with TK-10, in the assay with DU-145, with SN12C and in the assay on OVCAR-4 was > 100 µM (inactive) each time. For the same compound, the GI50 in the assay on MDA-MB-435 was > 100 µM (inactive).

With `Cc1ccc(NC(=S)C#N)cc1Cl`, the GI50 in the assay on HCC 2998 is 24.3 µM (inactive); in the assay on MDA-MB-231 it was 88.3 µM (inactive); in the assay with LOX IMVI it was 42.3 µM (inactive); with A498 it was 26.7 µM (inactive); in the assay with UACC-62 it was 37.9 µM (inactive); with HT-29, 30.1 µM (inactive). The GI50 was 23.8 µM (inactive) in the assay on A549; 43.4 µM (inactive) with PC-3; 23.4 µM (inactive) with Malme-3M; 37.8 µM (inactive) in the assay on KM12; 42.2 µM (inactive) in the assay with EKVX; 37.7 µM (inactive) with ACHN. For the same compound, the GI50 with SK-MEL-2 was 35.5 µM (inactive); with MOLT-4, 32.8 µM (inactive); in the assay on TK-10, 60.4 µM (inactive); in the assay with DU-145 it was 68.9 µM (inactive); in the assay on SN12C, 58.5 µM (inactive); with MDA-MB-435 it was 41.8 µM (inactive).

Regarding `COc1cc(CSc2ccc(O)cc2)cc(OC)c1OC`, the GI50 in the assay with MDA-MB-231 was 43.2 µM (inactive); in the assay with LOX IMVI it was 59.8 µM (inactive); with A498, 93.3 µM (inactive); with NCI-H522 it was 29.3 µM (inactive); with UACC-62, 27.4 µM (inactive); in the assay on HT-29 it was 50.4 µM (inactive). Besides, the GI50 is 48.4 µM (inactive) in the assay with A549; 27.4 µM (inactive) with PC-3; 27.5 µM (inactive) with Malme-3M; 30.2 µM (inactive) in the assay with KM12; 39.8 µM (inactive) in the assay on EKVX; 31.3 µM (inactive) in the assay with ACHN. In addition, the GI50 is 21 µM (inactive) in the assay on SK-MEL-2; 25.5 µM (inactive) in the assay with MOLT-4; 75.2 µM (inactive) in the assay on TK-10; 53.2 µM (inactive) in the assay on DU-145; 52.5 µM (inactive) in the assay on SN12C; 27.6 µM (inactive) in the assay with MDA-MB-435.

As to `NNc1nnc(CCCCCCCCc2nnc(NN)n2N)n1N`, the GI50 with HCC 2998 was 33.3 µM (inactive); with MDA-MB-231 it was 41.5 µM (inactive); in the assay on LOX IMVI, 21.4 µM (inactive); in the assay with A498 it was > 100 µM (inactive); in the assay with NCI-H522, 38.7 µM (inactive); in the assay on HT-29, > 100 µM (inactive). For the same compound, the GI50 in the assay with A549 was > 100 µM (inactive); in the assay on PC-3, > 100 µM (inactive); in the assay on KM12, > 100 µM (inactive); in the assay with EKVX, > 100 µM (inactive); in the assay with ACHN it was > 100 µM (inactive); with SK-MEL-2 it was 84.5 µM (inactive). Moreover, the GI50 is 33.2 µM (inactive) in the assay with MOLT-4; > 100 µM (inactive) in the assay with TK-10; > 100 µM (inactive) in the assay on DU-145; > 100 µM (inactive) in the assay with SN12C; > 100 µM (inactive) in the assay on OVCAR-4; > 100 µM (inactive) with MDA-MB-435.

Consider `CC(C)(/N=N/C(C)(C)C(=N)N)C(=N)N`, for which the GI50 with HCC 2998, in the assay with MDA-MB-231, in the assay with LOX IMVI, in the assay on A498, with NCI-H522 and in the assay on UACC-62 was > 100 µM (inactive) in each case. For the same compound, the GI50 with HT-29, in the assay on A549, in the assay with PC-3, in the assay with KM12, in the assay on EKVX and in the assay with ACHN was > 100 µM (inactive) throughout. Besides, the GI50 in the assay on SK-MEL-2, in the assay with MOLT-4, with TK-10, in the assay with DU-145, in the assay on SN12C and in the assay with OVCAR-4 was > 100 µM (inactive) each time. Also, in the assay on MDA-MB-435, the GI50 was > 100 µM (inactive).
